Test results published in the NIST ThermoML archive (doi:10.1016/j.jct.2011.09.022).

Details: Liquid, Closed cell (Static) method

CC#N [acetonitrile]
Details	vapor or sublimation pressure [kPa]
278.72 K	4.443
278.88 K	4.539
278.98 K	4.513
279.81 K	4.732
280.27 K	4.859
281.91 K	5.339
283.17 K	5.637
283.56 K	5.838
283.81 K	5.916
284.56 K	6.102
285.7 K	6.473
286.17 K	6.59
286.61 K	6.754
288.72 K	7.498
288.8 K	7.559
288.83 K	7.594
289.39 K	7.802
290.09 K	8.032
290.6 K	8.302
291.36 K	8.598
292.48 K	9.163
293.21 K	9.408
293.92 K	9.82
294.4 K	10.03
295.33 K	10.43
295.94 K	10.77
296.44 K	11.02
297.48 K	11.6
298.3 K	12.05
298.67 K	12.17
299.42 K	12.61
301.19 K	13.61
302.14 K	14.18
304.16 K	15.57
305.01 K	16.1
306.04 K	16.96
306.9 K	17.53
307.95 K	18.22
309.92 K	19.85
310.71 K	20.49
311.79 K	21.38
311.88 K	21.55
312.81 K	22.5
313.77 K	23.42
314.79 K	24.17
315.71 K	25.1
315.79 K	25.15
316.63 K	26.11
317.72 K	27.21
318.66 K	28.27
319.69 K	29.39
320.67 K	30.52
321.65 K	31.73
322.54 K	32.95
322.56 K	32.94
322.64 K	33.19
323.64 K	34.49
324.59 K	35.65
325.58 K	37

C1CCOC1 [tetrahydrofuran]
Details	vapor or sublimation pressure [kPa]
275.99 K	7.099
276.53 K	7.556
277.76 K	7.839
278.19 K	8.328
279.41 K	8.614
279.86 K	9.036
280.16 K	8.932
281.95 K	9.957
283.07 K	10.55
283.15 K	10.32
283.36 K	10.9
284.88 K	11.68
286.55 K	12.44
288.5 K	13.79
289 K	14
289.66 K	14.48
291.04 K	15.65
292.31 K	16.65
293.3 K	17.43
296.05 K	19.72
296.84 K	20.37
297.09 K	20.65
298.15 K	21.5
298.72 K	22.24
300.57 K	23.84
301.73 K	25.28
302.96 K	26.62
303.23 K	26.87
304.04 K	27.79
305.35 K	29.43
306.54 K	30.77
308.07 K	32.49
310.2 K	35.55
310.86 K	36.65
311.9 K	38.54
313.12 K	40.13
313.18 K	40.09
315.86 K	44.65
317.71 K	47.86
319.58 K	51.31
321.57 K	55.34
323.59 K	59.46
